Values of other authors as cited in US20020177585A1, “Uses of targeted oxidative therapeutic formulation in arteriosclerosis” (priority 2001, published 2002).

Tests used:
[1] = test system: peroxide-sensitive E. coli; settings: infused into the blood of infected rabbits
E. coli = settings: increasing concentration of peroxide ex-vivo

For `OO` [hydrogen peroxide, Hydrogen peroxide], the bactericidal effect [1] is given as “no bactericidal effect” and the direct bactericidal activity (E. coli) is given as “no evidence of direct bactericidal activity”.
